According to patent US7579356B2, “Thia-tetraazaacenaphthylene kinase inhibitors” (Janssen Pharmaceutica NV, priority 2005, dated 2009):

How the values were obtained:
Assay type in all cases: biochemical
EGFR = biological target: T1, EGFR (Homo sapiens, UniProt P00533); assay: EGFR Kinase Assay; conditions: for IC50: GST-EGFR, ATP 5 μM; for inhibition at 2 µM: test concentration of 2 μM, compounds without an IC50, read-out: EGFR inhibition in percent
T1 construct: The intracellular portion of EGFR started at nucleotide 2189 (corresponding to amino acid 667) and ended at the termination codon; made in house; host or cells: Sf9 insect cells (baculovirus)
Method in brief: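 Potency came from triplicate 16-point half-log titrations starting at 200 uM, with IC50 fitted from % inhibition against log concentration, or % inhibition at 2 μM otherwise. Reaction: Sf9-made GST–EGFR cytoplasmic region (aa 667 onward), biotin-polyGluTyr, 5 μM ATP with 33P tracer, pH 8.0 Tris/Mg/vanadate/DTT, 30 °C for 1 h; captured on streptavidin Flashplates and counted.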

c-Src kinase (human) = biological target: T2, c-Src kinase (human) (Homo sapiens, UniProt P12931); assay: c-Src Kinase Assay; conditions: test concentration of 2 μM; multiple values are separate assay results
T2 construct: purchased Upstate Biotechnology, Lake Placid, N.Y
Procedure: A mixture of a 10× kinase buffer (80 mM MOPS at pH 7.0, 2 mM EDTA and 100 mM Magnesium Chloride), ATP (5 μM final from a 10 mM stock), a Cdc2 peptide KVEKIGEGTYGVVYK (100 μM final from a 2.5 mM stock), γ-^33P ATP (10 μCl/μL stock) and water (for a total of 20 μL/well) was added to each well of a Streptavidin Flashplate.
Test compound in 100% DMSO (0.5 μL) was added to the appropriate wells. Diluted c-Src kinase (human) (Accession Number SWISS-PROT P12931) (Upstate Biotechnology, Lake Placid, N.Y.) (diluted in a buffer consisting of 20 mM MOPS at pH 7.0, 1 mM EDTA, β-mercaptoethanol (0.1%), Brij-35 (0.01%), glycerol (5%), and 1 mg/mL bovine serum albumin) (2.5 μL) was added to the wells to initiate the reactions. The reaction plates were incubated at 30° C. for 40 min. The reaction was terminated by the addition of a 3% phosphoric acid solution (5 μL). The reaction product (10 μL) was spotted onto a P30 filtermat and washed for 5 minutes in phosphoric acid (75 mM). The wash sequence was repeated two more times, followed with one final wash in methanol. The plates were then dried, sealed and read on the TopCount scintillation counter after adding 30 μL scintillation fluid.
The c-Src inhibition values were derived using the percent inhibition formula provided in Example 164 and are shown as percent in Table 2 at a test concentration of 2 μM. For those compounds with an IC50, the IC50 value in μM is shown in parentheses. For compounds with multiple test values, each value represents a separate assay result.

HER-2 = biological target: T3, HER-2 (Homo sapiens, UniProt P04626); assay: HER-2 Kinase Assay; conditions: for IC50: value in parentheses
T3 construct: His6 with thrombin site (N); purchased Proqinase (Freiburg, Germany)
Method in brief: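 Read-out was scintillation counting of 33P incorporated into biotinylated polyGluTyr captured on streptavidin plates. Reactions ran 1 h at 30 °C with GST-fused HER-2 residues 679–1255, 1 μM ATP, Mn2+ and Mg2+ at pH 7.5; data given as percent inhibition at 1 μM, with IC50 where determined.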

T3 sequence (P04626 679-1255): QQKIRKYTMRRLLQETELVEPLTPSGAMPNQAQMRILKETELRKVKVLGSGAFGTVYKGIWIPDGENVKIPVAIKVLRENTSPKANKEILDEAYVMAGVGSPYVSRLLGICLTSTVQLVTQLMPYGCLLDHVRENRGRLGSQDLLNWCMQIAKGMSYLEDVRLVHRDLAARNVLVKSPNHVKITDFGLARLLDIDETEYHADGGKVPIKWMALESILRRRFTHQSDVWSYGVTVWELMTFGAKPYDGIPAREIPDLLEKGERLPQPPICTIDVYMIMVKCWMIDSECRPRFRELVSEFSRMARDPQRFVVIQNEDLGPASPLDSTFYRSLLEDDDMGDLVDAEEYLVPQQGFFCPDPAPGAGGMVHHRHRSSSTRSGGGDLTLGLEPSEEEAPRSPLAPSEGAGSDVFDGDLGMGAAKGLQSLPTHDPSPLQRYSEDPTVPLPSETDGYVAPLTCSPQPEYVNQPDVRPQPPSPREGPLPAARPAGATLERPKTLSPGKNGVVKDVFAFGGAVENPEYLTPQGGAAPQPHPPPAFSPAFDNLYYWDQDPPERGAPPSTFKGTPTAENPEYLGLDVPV
T2 sequence (P12931 whole entry): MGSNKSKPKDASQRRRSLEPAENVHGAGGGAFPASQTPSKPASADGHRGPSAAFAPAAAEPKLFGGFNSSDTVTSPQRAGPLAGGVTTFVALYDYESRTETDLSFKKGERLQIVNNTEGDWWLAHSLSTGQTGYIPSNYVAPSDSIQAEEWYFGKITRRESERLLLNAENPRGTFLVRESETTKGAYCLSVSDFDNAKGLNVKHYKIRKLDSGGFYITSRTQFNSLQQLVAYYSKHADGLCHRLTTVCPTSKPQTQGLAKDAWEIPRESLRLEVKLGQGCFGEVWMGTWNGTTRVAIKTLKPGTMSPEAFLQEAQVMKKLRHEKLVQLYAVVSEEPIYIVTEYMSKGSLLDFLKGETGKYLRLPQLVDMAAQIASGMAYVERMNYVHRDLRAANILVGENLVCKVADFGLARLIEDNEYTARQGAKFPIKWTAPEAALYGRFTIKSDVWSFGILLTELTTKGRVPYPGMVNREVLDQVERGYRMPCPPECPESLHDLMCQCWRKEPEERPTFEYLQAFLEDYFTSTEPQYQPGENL
T1 sequence (P00533 669-1210 limits assumed): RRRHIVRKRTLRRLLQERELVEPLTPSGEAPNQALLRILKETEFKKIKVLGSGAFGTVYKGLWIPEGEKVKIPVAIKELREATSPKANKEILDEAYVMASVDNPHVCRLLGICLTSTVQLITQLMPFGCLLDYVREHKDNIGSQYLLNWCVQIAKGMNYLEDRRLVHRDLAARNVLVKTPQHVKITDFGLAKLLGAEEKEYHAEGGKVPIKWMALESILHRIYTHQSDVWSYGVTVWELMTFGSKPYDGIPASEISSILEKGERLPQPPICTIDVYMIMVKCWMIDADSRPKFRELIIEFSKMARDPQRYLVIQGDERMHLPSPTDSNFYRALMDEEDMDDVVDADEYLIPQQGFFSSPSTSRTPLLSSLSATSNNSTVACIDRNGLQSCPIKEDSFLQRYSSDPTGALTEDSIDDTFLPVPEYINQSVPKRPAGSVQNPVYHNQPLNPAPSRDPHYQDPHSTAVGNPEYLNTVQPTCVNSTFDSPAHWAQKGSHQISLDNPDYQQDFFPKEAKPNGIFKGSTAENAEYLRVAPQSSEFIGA

Compound | IC50 (EGFR) | inhibition at 2 µM (c-Src kinase (human)) | IC50 (HER-2) | inhibition at 2 µM (EGFR) | inhibition at 1 µM (HER-2; test concentration of 1 μM)
O=C(Nc1ccc(NCCCN2CCOCC2)nc1)c1sc2ncnc3c2c1NC(=O)N3c1ccc(Br)cc1F [Cpd 71, 5-(4-bromo-2-fluoro-phenyl)-4-oxo-4,5-dihydro-3H-1-thia-3,5,6,8-tetraaza-acenaphthylene-2-carboxylic acid [6-(3-morpholin-4-yl-propylamino)-pyridin-3-yl]-amide] | 850 nM | 44% | 1760 nM |  | 
COc1ccc(NC(=O)c2sc3ncnc4c3c2NC(=O)N4c2cc(Cl)ccc2OC)cc1OC [Cpd 73, 5-(5-chloro-2-methoxy-phenyl)-4-oxo-4,5-dihydro-3H-1-thia-3,5,6,8-tetraaza-acenaphthylene-2-carboxylic acid (3,4-dimethoxy-phenyl)-amide] |  | -17% |  | 51% | -14%
COc1cc(NC(=O)c2sc3ncnc4c3c2NC(=O)N4c2ccc(Oc3ccccc3)cc2)ccc1CN1CCCCC1 [Cpd 242, 4-oxo-5-(4-phenoxy-phenyl)-4,5-dihydro-3H-1-thia-3,5,6,8-tetraaza-acenaphthylene-2-carboxylic acid (3-methoxy-4-piperidin-1-ylmethyl-phenyl)-amide] | 22 nM |  | 42 nM |  | 
COc1cc(NC(=O)c2sc3ncnc4c3c2NC(=O)N4c2ccc(OCc3ccco3)c(Cl)c2)ccc1CN1CCOCC1 [Cpd 246, 5-[3-chloro-4-(furan-2-ylmethoxy)-phenyl]-4-oxo-4,5-dihydro-3H-1-thia-3,5,6,8-tetraaza-acenaphthylene-2-carboxylic acid (3-methoxy-4-morpholin-4-ylmethyl-phenyl)-amide] | 22 nM |  | 47 nM |  | 
CN1CCC(NC(=O)c2sc3ncnc4c3c2NC(=O)N4c2ccc(OCc3ccco3)c(Cl)c2)CC1 [Cpd 247, 5-[3-chloro-4-(furan-2-ylmethoxy)-phenyl]-4-oxo-4,5-dihydro-3H-1-thia-3,5,6,8-tetraaza-acenaphthylene-2-carboxylic acid (1-methyl-piperidin-4-yl)-amide] | 249 nM |  | 1190 nM |  | 
O=C(Nc1ccc(N2C(=O)Nc3c(C(=O)Nc4ccc(CN5CCOCC5)cc4)sc4ncnc2c34)cc1)c1ccccc1 [Cpd 248, 5-(4-benzoylamino-phenyl)-4-oxo-4,5-dihydro-3H-1-thia-3,5,6,8-tetraaza-acenaphthylene-2-carboxylic acid (4-morpholin-4-ylmethyl-phenyl)-amide] |  |  | > 100000 nM | 8% | 
CN1CCN(Cc2ccc(NC(=O)c3sc4ncnc5c4c3NC(=O)N5c3ccc(OCc4cccc(F)c4)c(Cl)c3)cc2)CC1 [Cpd 252, 5-[3-chloro-4-(3-fluoro-benzyloxy)-phenyl]-4-oxo-4,5-dihydro-3H-1-thia-3,5,6,8-tetraaza-acenaphthylene-2-carboxylic acid [4-(4-methyl-piperazin-1-ylmethyl)-phenyl]-amide] | 161 nM |  | 610 nM |  | 
CC1COCC(C)N1Cc1ccc(NC(=O)c2sc3ncnc4c3c2NC(=O)N4c2ccc(Oc3ccccc3)cc2)cc1 (stereo not shown) [Cpd 253, 4-oxo-5-(4-phenoxy-phenyl)-4,5-dihydro-3H-1-thia-3,5,6,8-tetraaza-acenaphthylene-2-carboxylic acid [4-(3,5-dimethyl-morpholin-4-ylmethyl)-phenyl]-amide] | 120 nM |  | 344 nM |  | 
O=C(Nc1ccc(CN2CCC(CO)CC2)cc1)c1sc2ncnc3c2c1NC(=O)N3c1ccc(Oc2ccccc2)cc1 [Cpd 254, 4-oxo-5-(4-phenoxy-phenyl)-4,5-dihydro-3H-1-thia-3,5,6,8-tetraaza-acenaphthylene-2-carboxylic acid [4-(4-hydroxymethyl-piperidin-1-ylmethyl)-phenyl]-amide] | 26 nM |  | 68 nM |  | 
CC1CCN(Cc2ccc(NC(=O)c3sc4ncnc5c4c3NC(=O)N5c3ccc(Oc4ccccc4)cc3)cc2)CC1 [Cpd 255, 4-oxo-5-(4-phenoxy-phenyl)-4,5-dihydro-3H-1-thia-3,5,6,8-tetraaza-acenaphthylene-2-carboxylic acid [4-(4-methyl-piperidin-1-ylmethyl)-phenyl]-amide] | 41 nM |  | 24 nM |  | 
O=C(Nc1ccc(CN2CCCC(CO)C2)cc1)c1sc2ncnc3c2c1NC(=O)N3c1ccc(Oc2ccccc2)cc1 (stereo not shown) [Cpd 256, 4-oxo-5-(4-phenoxy-phenyl)-4,5-dihydro-3H-1-thia-3,5,6,8-tetraaza-acenaphthylene-2-carboxylic acid [4-(3-hydroxymethyl-piperidin-1-ylmethyl)-phenyl]-amide] | 321 nM |  | 450 nM |  | 
CC(C)(C)OC(=O)NC1CCN(Cc2ccc(NC(=O)c3sc4ncnc5c4c3NC(=O)N5c3ccc(Oc4ccccc4)cc3)cc2)CC1 [Cpd 258, [1-(4-{[4-oxo-5-(4-phenoxy-phenyl)-4,5-dihydro-3H-1-thia-3,5,6,8-tetraaza-acenaphthylene-2-carbonyl]-amino}-benzyl)-piperidin-4-yl]-carbamic acid tert-butyl ester] | 53 nM |  | 58 nM |  | 
CN(C)C1CCN(Cc2ccc(NC(=O)c3sc4ncnc5c4c3NC(=O)N5c3ccc(Oc4ccccc4)cc3)cc2)CC1 [Cpd 260, 4-oxo-5-(4-phenoxy-phenyl)-4,5-dihydro-3H-1-thia-3,5,6,8-tetraaza-acenaphthylene-2-carboxylic acid [4-(4-dimethylamino-piperidin-1-ylmethyl)-phenyl]-amide] | 37 nM |  | 28 nM |  | 

Results, then the compound that gave them:

IC50 (EGFR) | inhibition at 2 µM (c-Src kinase (human)) | IC50 (HER-2) | inhibition at 2 µM (EGFR) | inhibition at 1 µM (HER-2; test concentration of 1 μM) | Compound
330 nM | 43% | 1020 nM |  |  | CN1CCN(Cc2ccc(NC(=O)c3sc4ncnc5c4c3NC(=O)N5c3ccc(Br)cc3F)cc2)CC1 [Cpd 70, 5-(4-bromo-2-fluoro-phenyl)-4-oxo-4,5-dihydro-3H-1-thia-3,5,6,8-tetraaza-acenaphthylene-2-carboxylic acid [4-(4-methyl-piperazin-1-ylmethyl)-phenyl]-amide]
 | 43% |  |  |  | COc1ccc(Cl)c(N2C(=O)Nc3c(C(=O)Nc4ccc(OCCN5CCCCC5)c(OC)c4)sc4ncnc2c34)c1 [Cpd 88, 5-(2-chloro-5-methoxy-phenyl)-4-oxo-4,5-dihydro-3H-1-thia-3,5,6,8-tetraaza-acenaphthylene-2-carboxylic acid [3-methoxy-4-(2-piperidin-1-yl-ethoxy)-phenyl]-amide]
16 nM |  | 83 nM |  |  | COc1cc(NC(=O)c2sc3ncnc4c3c2NC(=O)N4c2ccc(OCc3ccco3)c(Cl)c2)ccc1CN1CCCCC1 [Cpd 243, 5-[3-chloro-4-(furan-2-ylmethoxy)-phenyl]-4-oxo-4,5-dihydro-3H-1-thia-3,5,6,8-tetraaza-acenaphthylene-2-carboxylic acid (3-methoxy-4-piperidin-1-ylmethyl-phenyl)-amide]
23 nM |  | 85 nM |  |  | O=C(Nc1ccc(CN2CCCCC2)cc1)c1sc2ncnc3c2c1NC(=O)N3c1ccc(OCc2ccco2)c(Cl)c1 [Cpd 244, 5-[3-chloro-4-(furan-2-ylmethoxy)-phenyl]-4-oxo-4,5-dihydro-3H-1-thia-3,5,6,8-tetraaza-acenaphthylene-2-carboxylic acid (4-piperidin-1-ylmethyl-phenyl)-amide]
 |  | > 100000 nM | 9% |  | O=C(Nc1ccc(N2C(=O)Nc3c(C(=O)Nc4ccc(CN5CCCCC5)cc4)sc4ncnc2c34)cc1)c1ccccc1 [Cpd 249, 5-(4-benzoylamino-phenyl)-4-oxo-4,5-dihydro-3H-1-thia-3,5,6,8-tetraaza-acenaphthylene-2-carboxylic acid (4-piperidin-1-ylmethyl-phenyl)-amide]
141 nM |  | 285 nM |  |  | O=C(Nc1ccc(CCN2CCCCC2)cc1)c1sc2ncnc3c2c1NC(=O)N3c1cccc2ccoc12 [Cpd 251, 5-benzofuran-7-yl-4-oxo-4,5-dihydro-3H-1-thia-3,5,6,8-tetraaza-acenaphthylene-2-carboxylic acid [4-(2-piperidin-1-yl-ethyl)-phenyl]-amide]
